Source: patent US5795882A, “Method of treating prostatic diseases using delayed and/or sustained release vitamin D formulations” (Bone Care International, Inc., priority 1996, dated 1998)

How the values were obtained:
[1] = In vitro thermal conversion of 1α-hydroxyprevitamin D to 1α-hydroxyvitamin D; assay type: physicochemical; details: in ethanol, 37° C.
Procedure: A series of experiments were conducted which address the in vitro conversion of previtamin to vitamin for three 1α-hydroxyprevitamin D's: 1α-hydroxyprevitamin D2, 1α,24-dihydroxyprevitamin D2 and 1α-hydroxyprevitamin D3. Each 1α-hydroxyprevitamin D was dissolved in ethanol, incubated at 37° C. in a water bath, and samples taken at two-hour intervals. An analytical HPLC separation was performed on each sample to quantify the thermal conversion of the previtamin to the vitamin form. The data collected were normalized to account for the presence of any vitamin form in the initial formulation (≤10%). The results are presented in FIG. 1 which is a plot of % previtamin versus time in hours. Linear regression lines were generated for each previtamin.

luteinizing hormone (LH) = details: cited from earlier work

Row | SMILES | half-life [1] [h] | cardiovascular profile (luteinizing hormone (LH); in vivo) | inhibition of the release of luteinizing hormone from the pituitary gland (luteinizing hormone (LH); in vivo) | dose achieving maximum suppression of plasma testosterone (luteinizing hormone (LH); men) [mg/day]
1 | CC1=C(/C=C\C2=CCC[C@]3(C)[C@@H]([C@H](C)/C=C/[C@H](C)C(C)C)CC[C@@H]23)C[C@@H](O)C[C@@H]1O [1α-(OH)preD2, 1α-hydroxyprevitamin D2] | 12.9 | – | – | –
2 | CC/C(=C(/CC)c1ccc(O)cc1)c1ccc(O)cc1 [diethylstilbestrol] | – | poor cardiovascular profile | potent inhibitors of the release from the pituitary gland of luteinizing hormone | 3
